How the values were obtained:
bedstraw = experiment: Test B pre/postemergence bedstraw; type: in vivo, Galium aparine
How it was run: (§1)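 Herbicidal effect was estimated by eye on a ten-point control scale after plants spent twelve to sixteen days in a greenhouse following soil or foliar treatment. Foliar sprays targeted plants at one to four leaves; all doses were formulated in a non-phytotoxic solvent with surfactant.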

cocklebur = experiment: Test B pre/postemergence cocklebur; type: in vivo, Xanthium strumarium
How it was run: as §1

corn = experiment: Test B pre/postemergence corn; type: in vivo, Zea mays
How it was run: as §1

crabgrass = experiment: Test B pre/postemergence crabgrass; type: in vivo, Digitaria sanguinalis
How it was run: as §1

giant foxtail = experiment: Test B pre/postemergence giant foxtail; type: in vivo, Setaria faberii
How it was run: as §1

morningglory = experiment: Test B pre/postemergence morningglory; type: in vivo, Ipomoea hederacea
How it was run: as §1

pigweed = experiment: Test B pre/postemergence pigweed; type: in vivo, Amaranthus retroflexus
How it was run: as §1

rape = experiment: Test B pre/postemergence rape; type: in vivo, Brassica napus
How it was run: as §1

soybean = experiment: Test B pre/postemergence soybean; type: in vivo, Glycine max
How it was run: as §1

velvetleaf = experiment: Test B pre/postemergence velvetleaf; type: in vivo, Abutilon theophrasti
How it was run: as §1

wheat = experiment: Test B pre/postemergence wheat; type: in vivo, Triticum aestivum
How it was run: as §1

wild oat = experiment: Test B pre/postemergence wild oat; type: in vivo, Avena fatua
How it was run: as §1

purple nutsedge = experiment: Test B pre/postemergence purple nutsedge; type: in vivo, Cyperus rotundus
How it was run: as §1

rice = experiment: Test B flood test rice; type: in vivo, Oryza sativa
How it was run: (§2)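 Flood test on plants grown to the 2-leaf stage; treated plants kept in greenhouse twelve to sixteen days, then visually rated against controls on a 0 (no effect) to 10 (complete control) scale.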

smallflower flatsedge = experiment: Test B flood test smallflower flatsedge; type: in vivo, Cyperus difformis
How it was run: as §2

duck salad = experiment: Test B flood test duck salad; type: in vivo, Heteranthera limosa
How it was run: as §2

[1] = Postemergence, Rate 125 g/ha, scale 0 to 10, 0 is no effect, 10 is complete control
[2] = Postemergence, Rate 250 g/ha, scale 0 to 10, 0 is no effect, 10 is complete control
[3] = Postemergence, Rate 500 g/ha, scale of 0 to 10 where 0 is no effect and 10 is complete control
[4] = Preemergence, Rate 62 g/ha, scale 0 to 10 (0 no effect, 10 complete control)
[5] = Preemergence, Rate 125 g/ha, scale of 0 to 10 where 0 is no effect and 10 is complete control
[6] = Preemergence, Rate 500 g/ha, scale 0 to 10, 0 is no effect, 10 is complete control
[7] = Rate 62 g/ha, Postemergence, scale of 0 to 10 where 0 is no effect and 10 is complete control
[8] = Preemergence, Rate 250 g/ha, scale 0 to 10, 0 is no effect, 10 is complete control
[9] = Rate 62 g/ha, flood test species, Pre-emergence, visual evaluation after twelve to sixteen days
[10] = Rate 125 g/ha, under heading Pre-emergence, flood test species, visual evaluation after twelve to sixteen days
[11] = Rate 250 g/ha, Pre-emergence, flood-test species, scale 0 to 10, 0 is no effect, 10 is complete control
[12] = Rate 500 g/ha, Pre-emergence, flood test species, scale 0 to 10 (0 no effect, 10 complete control)

In the case of `CC(C)N(C(=O)n1oc(=O)n(CC#N)c1=O)c1ccc(F)cc1` [Compound 395], the “Plant response rating, Bedstraw” value (bedstraw; [1]) was 0, the “Plant response rating, Bedstraw” value (bedstraw; [2]) was 0 and the “Bedstraw plant response rating” value (bedstraw; [3]) was 4. The “Plant response rating, Bedstraw” value (bedstraw; [4]) was 0, the “Plant response rating, Bedstraw” value (bedstraw; [5]) was 0 and the “Bedstraw plant response rating” value (bedstraw; Preemergence, Rate 250 g/ha, scale of 0 to 10 where 0 is no effect and 10 is complete control) was 0. The “Bedstraw plant response rating” value (bedstraw; [6]) was 0, the “Bedstraw plant response rating” value (bedstraw; [7]) was 0 and the “Plant response rating, Cocklebur” value (cocklebur; [1]) was 0. For the same compound, the “Plant response rating, Cocklebur” value (cocklebur; [2]) was 0, the “Cocklebur plant response rating” value (cocklebur; [3]) was 0 and the “Plant response rating, Cocklebur” value (cocklebur; [4]) was 0. The “Plant response rating, Cocklebur” value (cocklebur; [5]) was 0, the “Cocklebur plant response rating” value (cocklebur; [8]) was 0 and the “Cocklebur plant response rating” value (cocklebur; [6]) was 0. For the same compound, the “Cocklebur plant response rating” value (cocklebur; [7]) was 0, the “Plant response rating, Corn” value (corn; [1]) was 0 and the “Plant response rating, Corn” value (corn; [2]) was 0. For the same compound, the “Corn plant response rating” value (corn; [3]) was 0, the “Plant response rating, Corn” value (corn; [4]) was 0 and the “Plant response rating, Corn” value (corn; [5]) was 0. The “Corn plant response rating” value (corn; [8]) was 0, the “Corn plant response rating” value (corn; [6]) was 0 and the “Corn plant response rating” value (corn; [7]) was 0. The “Plant response rating, Crabgrass” value (crabgrass; [1]) was 2, the “Plant response rating, Crabgrass” value (crabgrass; [2]) was 2 and the “Crabgrass plant response rating” value (crabgrass; [3]) was 5. For the same compound, the “Plant response rating, Crabgrass” value (crabgrass; [4]) was 0, the “Plant response rating, Crabgrass” value (crabgrass; [5]) was 0 and the “Crabgrass plant response rating” value (crabgrass; [8]) was 0. For the same compound, the “Crabgrass plant response rating” value (crabgrass; [6]) was 2, the “Crabgrass plant response rating” value (crabgrass; [7]) was 0 and the “Plant response rating, Giant foxtail” value (giant foxtail; [1]) was 3. For the same compound, the “Plant response rating, Giant foxtail” value (giant foxtail; [2]) was 5, the “Giant foxtail plant response rating” value (giant foxtail; [3]) was 6 and the “Plant response rating, Giant foxtail” value (giant foxtail; [4]) was 0. For the same compound, the “Plant response rating, Giant foxtail” value (giant foxtail; [5]) was 0, the “Giant foxtail plant response rating” value (giant foxtail; [8]) was 0 and the “Giant foxtail plant response rating” value (giant foxtail; [6]) was 2. The “Giant foxtail plant response rating” value (giant foxtail; [7]) was 0, the “Plant response rating, Morningglory” value (morningglory; [2]) was 0 and the “Plant response rating, Morningglory” value (morningglory; [4]) was 0. The “Plant response rating, Morningglory” value (morningglory; [5]) was 0, the “Morningglory plant response rating” value (morningglory; [8]) was 0 and the “Morningglory plant response rating” value (morningglory; [6]) was 0. For the same compound, the “Morningglory plant response rating” value (morningglory; [7]) was 0, the “Plant response rating, Redroot pigweed” value (pigweed; [2]) was 0 and the “Redroot pigweed plant response rating” value (pigweed; [3]) was 0. For the same compound, the “Plant response rating, Redroot pigweed” value (pigweed; [4]) was 0, the “Plant response rating, Redroot pigweed” value (pigweed; [5]) was 0 and the “Redroot pigweed plant response rating” value (pigweed; [8]) was 0. The “Redroot pigweed plant response rating” value (pigweed; [6]) was 0, the “Redroot pigweed plant response rating” value (pigweed; [7]) was 0 and the “Plant response rating, Rape” value (rape; [2]) was 0. For the same compound, the “Plant response rating, Rape” value (rape; [4]) was 0, the “Plant response rating, Rape” value (rape; [5]) was 0 and the “Rape plant response rating” value (rape; [8]) was 0. For the same compound, the “Rape plant response rating” value (rape; [6]) was 0, the “Rape plant response rating” value (rape; [7]) was 0 and the “Plant response rating, Soybean” value (soybean; [2]) was 1. The “Soybean plant response rating” value (soybean; [3]) was 1, the “Plant response rating, Soybean” value (soybean; [4]) was 0 and the “Plant response rating, Soybean” value (soybean; [5]) was 0. The “Soybean plant response rating” value (soybean; [8]) was 0, the “Soybean plant response rating” value (soybean; [6]) was 0 and the “Soybean plant response rating” value (soybean; [7]) was 0. The “Plant response rating, Velvetleaf” value (velvetleaf; [2]) was 2, the “Velvetleaf plant response rating” value (velvetleaf; [3]) was 2 and the “Plant response rating, Velvetleaf” value (velvetleaf; [4]) was 0. The “Plant response rating, Velvetleaf” value (velvetleaf; [5]) was 0, the “Velvetleaf plant response rating” value (velvetleaf; [8]) was 0 and the “Velvetleaf plant response rating” value (velvetleaf; [6]) was 0. The “Velvetleaf plant response rating” value (velvetleaf; [7]) was 0, the “Wheat plant response rating” value (wheat; [3]) was 3 and the “Plant response rating, Wheat” value (wheat; [4]) was 0. The “Plant response rating, Wheat” value (wheat; [5]) was 0, the “Wheat plant response rating” value (wheat; [8]) was 0 and the “Wheat plant response rating” value (wheat; [6]) was 0. For the same compound, the “Wheat plant response rating” value (wheat; [7]) was 0, the “Wild oats plant response rating” value (wild oat; [3]) was 3 and the “Plant response rating, Wild oats” value (wild oat; [4]) was 0. For the same compound, the “Plant response rating, Wild oats” value (wild oat; [5]) was 0, the “Wild oats plant response rating” value (wild oat; [8]) was 0 and the “Wild oats plant response rating” value (wild oat; [6]) was 0. For the same compound, the “Wild oats plant response rating” value (wild oat; [7]) was 0, the “Plant response rating, Nutsedge” value (purple nutsedge; [2]) was 0 and the “Nutsedge plant response rating” value (purple nutsedge; [3]) was 0. For the same compound, the “Plant response rating, Nutsedge” value (purple nutsedge; [4]) was 0, the “Plant response rating, Nutsedge” value (purple nutsedge; [5]) was 0 and the “Nutsedge plant response rating” value (purple nutsedge; [8]) was 0. The “Nutsedge plant response rating” value (purple nutsedge; [6]) was 0, the “Nutsedge plant response rating” value (purple nutsedge; [7]) was 0 and the “Plant response rating, Rice (0 to 10 scale, 0 is no effect, 10 is complete control)” value (rice; [9]) was 0. For the same compound, the “Rice plant response rating (0 to 10 scale, 0 is no effect, 10 is complete control)” value (rice; [10]) was 0, the “Rice plant response rating” value (rice; [11]) was 0 and the “Rice plant response rating” value (rice; [12]) was 0. The “Plant response rating, S. Flatsedge (0 to 10 scale, 0 is no effect, 10 is complete control)” value (smallflower flatsedge; [9]) was 0, the “S. Flatsedge plant response rating (0 to 10 scale, 0 is no effect, 10 is complete control)” value (smallflower flatsedge; [10]) was 0 and the “S. Flatsedge plant response rating” value (smallflower flatsedge; [11]) was 0. For the same compound, the “S. Flatsedge plant response rating” value (smallflower flatsedge; [12]) was 0, the “Plant response rating, Ducksalad (0 to 10 scale, 0 is no effect, 10 is complete control)” value (duck salad; [9]) was 0 and the “Ducksalad plant response rating (0 to 10 scale, 0 is no effect, 10 is complete control)” value (duck salad; [10]) was 0. The “Ducksalad plant response rating” value (duck salad; [11]) was 0 and the “Ducksalad plant response rating” value (duck salad; [12]) was 0.

From patent US6737383B1, “Herbicidal oxadiazolidines” (priority 1999, dated 2004)
